Like-named read-outs stand apart in the source and are kept apart here.
Key:
Experiment in all cases: TGFα-shedding assay-based GPCR screening with chimeric Gα subunit proteins
Type in all cases: cell-based
348 GPCRs [1] = target: T1, 348 GPCRs (Homo sapiens, UniProt P25929); conditions: 10µM, Favipiravir 100μM
T1 construct: expressed in transfected cells; host or cells: HEK293A
T1 sequence (P25929 1-384): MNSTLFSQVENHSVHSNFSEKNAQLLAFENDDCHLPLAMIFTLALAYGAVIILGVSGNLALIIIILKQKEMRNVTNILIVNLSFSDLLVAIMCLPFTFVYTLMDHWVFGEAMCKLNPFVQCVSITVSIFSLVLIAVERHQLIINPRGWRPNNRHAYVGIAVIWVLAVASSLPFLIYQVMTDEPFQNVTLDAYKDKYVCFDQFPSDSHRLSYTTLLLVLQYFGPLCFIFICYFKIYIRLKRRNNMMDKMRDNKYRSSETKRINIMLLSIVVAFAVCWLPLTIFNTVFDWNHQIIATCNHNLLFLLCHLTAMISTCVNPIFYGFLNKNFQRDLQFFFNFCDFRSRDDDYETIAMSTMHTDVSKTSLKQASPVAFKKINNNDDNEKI

348 GPCRs [2] = target: T2, 348 GPCRs (Homo sapiens, UniProt Q6W5P4); conditions: 10µM, Favipiravir 100μM
T2 construct: expressed in transfected cells; host or cells: HEK293A
T2 sequence (Q6W5P4 1-371): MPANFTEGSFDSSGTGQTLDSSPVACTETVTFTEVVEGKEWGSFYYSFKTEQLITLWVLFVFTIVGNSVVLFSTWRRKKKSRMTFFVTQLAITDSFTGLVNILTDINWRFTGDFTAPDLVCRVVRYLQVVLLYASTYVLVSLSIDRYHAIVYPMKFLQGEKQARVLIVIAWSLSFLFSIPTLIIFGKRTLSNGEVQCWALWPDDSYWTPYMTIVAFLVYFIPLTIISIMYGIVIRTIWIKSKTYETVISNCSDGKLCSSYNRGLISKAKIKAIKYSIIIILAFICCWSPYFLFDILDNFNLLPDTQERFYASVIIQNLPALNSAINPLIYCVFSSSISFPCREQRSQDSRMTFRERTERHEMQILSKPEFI

348 GPCRs [3] = target: T3, 348 GPCRs (Homo sapiens, UniProt Q9H244)
T3 construct: expressed in transfected cells; host or cells: HEK293A

348 GPCRs [4] = target: T4, 348 GPCRs (Homo sapiens, UniProt P49146); conditions: 10µM, Favipiravir 100μM
T4 construct: expressed in transfected cells; host or cells: HEK293A
T4 sequence (P49146 1-381): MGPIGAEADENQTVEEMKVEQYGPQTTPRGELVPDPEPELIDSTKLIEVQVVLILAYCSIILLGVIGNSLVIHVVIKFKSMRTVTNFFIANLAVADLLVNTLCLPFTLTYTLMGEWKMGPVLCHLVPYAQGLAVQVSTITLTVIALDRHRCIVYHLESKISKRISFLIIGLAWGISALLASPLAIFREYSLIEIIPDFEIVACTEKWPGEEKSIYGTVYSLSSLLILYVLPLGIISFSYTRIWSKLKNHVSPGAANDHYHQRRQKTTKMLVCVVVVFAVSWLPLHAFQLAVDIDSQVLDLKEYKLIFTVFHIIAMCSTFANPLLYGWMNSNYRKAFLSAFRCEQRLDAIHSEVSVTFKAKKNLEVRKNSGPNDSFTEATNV

348 GPCRs [5] = target: T5, 348 GPCRs (Homo sapiens, UniProt Q01726)
T5 construct: expressed in transfected cells; host or cells: HEK293A

348 GPCRs [6] = target: T6, 348 GPCRs (Homo sapiens, UniProt O14804); conditions: 10µM, Favipiravir 100μM
T6 construct: expressed in transfected cells; host or cells: HEK293A
T6 sequence (O14804 1-337): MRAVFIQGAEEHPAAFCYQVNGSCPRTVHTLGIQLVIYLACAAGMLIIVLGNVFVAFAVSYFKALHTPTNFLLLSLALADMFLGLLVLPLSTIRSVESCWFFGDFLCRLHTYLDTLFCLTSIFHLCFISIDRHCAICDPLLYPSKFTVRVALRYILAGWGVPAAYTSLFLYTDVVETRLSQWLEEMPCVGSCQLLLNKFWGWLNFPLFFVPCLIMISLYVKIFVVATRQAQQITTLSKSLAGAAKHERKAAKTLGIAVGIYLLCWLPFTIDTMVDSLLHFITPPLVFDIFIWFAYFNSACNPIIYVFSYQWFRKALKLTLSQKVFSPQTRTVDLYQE

348 GPCRs [7] = target: T7, 348 GPCRs (Homo sapiens, UniProt P08913)
T7 construct: expressed in transfected cells; host or cells: HEK293A
T7 sequence (P08913 1-465): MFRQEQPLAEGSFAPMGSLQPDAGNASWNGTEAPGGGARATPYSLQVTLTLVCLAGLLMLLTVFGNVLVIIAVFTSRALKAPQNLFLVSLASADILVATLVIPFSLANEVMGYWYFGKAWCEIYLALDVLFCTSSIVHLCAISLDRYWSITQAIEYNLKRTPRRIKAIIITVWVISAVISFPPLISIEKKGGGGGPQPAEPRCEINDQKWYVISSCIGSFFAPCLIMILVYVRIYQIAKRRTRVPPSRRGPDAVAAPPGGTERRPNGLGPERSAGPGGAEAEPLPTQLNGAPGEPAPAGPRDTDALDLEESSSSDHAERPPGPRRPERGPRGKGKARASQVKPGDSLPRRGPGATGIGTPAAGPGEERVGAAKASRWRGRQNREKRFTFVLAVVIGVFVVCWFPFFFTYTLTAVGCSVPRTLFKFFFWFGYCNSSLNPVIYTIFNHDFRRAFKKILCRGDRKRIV

[8] = NPY1R (neuropeptide Y receptor Y1), read-out: % GPCR activation compared to TPA
[9] = NPS (neuropeptide S receptor 1), read-out: % GPCR activation compared to TPA
[10] = GPCR P2Y12 (purinergic receptor P2Y, G-protein coupled, 12), read-out: % GPCR activation compared to TPA
[11] = NPY2R (neuropeptide Y receptor Y2), read-out: % GPCR activation compared to TPA
[12] = GPCR MC1R (melanocyte-stimulating hormone receptor), read-out: % GPCR activation compared to TPA
[13] = TAAR5 (trace amine associated receptor 5), read-out: % GPCR activation compared to TPA
[14] = GPCR α2A (adrenoceptor alpha 2A), read-out: % GPCR activation compared to TPA
[15] = read-out: % GPCR activation compared to TPA, NPY1R (neuropeptide Y receptor Y1)
[16] = read-out: % GPCR activation compared to TPA, NPS (neuropeptide S receptor 1)
[17] = read-out: % GPCR activation compared to TPA, GPCR P2Y12 (purinergic receptor P2Y, G-protein coupled, 12)
[18] = read-out: % GPCR activation compared to TPA, NPY2R (neuropeptide Y receptor Y2)
[19] = read-out: % GPCR activation compared to TPA, GPCR MC1R (melanocyte-stimulating hormone receptor)
[20] = read-out: % GPCR activation compared to TPA, TAAR5 (trace amine associated receptor 5)
[21] = read-out: % GPCR activation compared to TPA, GPCR α2A (adrenoceptor alpha 2A)

T3 sequence (Q9H244 whole entry): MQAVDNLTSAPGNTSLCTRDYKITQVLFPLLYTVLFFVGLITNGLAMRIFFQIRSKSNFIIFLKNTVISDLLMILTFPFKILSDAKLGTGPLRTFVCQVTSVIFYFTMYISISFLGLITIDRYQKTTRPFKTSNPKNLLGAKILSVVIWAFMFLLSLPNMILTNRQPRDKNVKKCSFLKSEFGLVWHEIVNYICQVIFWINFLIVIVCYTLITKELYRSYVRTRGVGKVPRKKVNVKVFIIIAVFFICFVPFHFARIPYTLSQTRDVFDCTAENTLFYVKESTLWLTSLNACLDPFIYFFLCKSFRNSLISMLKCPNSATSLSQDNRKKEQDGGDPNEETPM
T5 sequence (Q01726 whole entry): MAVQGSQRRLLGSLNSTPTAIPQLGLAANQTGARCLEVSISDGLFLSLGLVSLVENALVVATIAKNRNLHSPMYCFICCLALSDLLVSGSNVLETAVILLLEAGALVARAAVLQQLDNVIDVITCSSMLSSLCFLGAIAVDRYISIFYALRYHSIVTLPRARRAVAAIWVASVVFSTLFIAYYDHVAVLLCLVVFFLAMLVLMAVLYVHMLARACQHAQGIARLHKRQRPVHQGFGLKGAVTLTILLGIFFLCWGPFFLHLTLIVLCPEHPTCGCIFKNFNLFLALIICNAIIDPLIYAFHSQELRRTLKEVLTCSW

`N#C[C@@]1(c2ccc3c(N)ncnn23)O[C@H](CO)[C@@H](O)[C@H]1O` [GS441524] showed an activation at 100 µM (348 GPCRs [1]; [8]) of -0.88%, an activation at 10 µM (348 GPCRs [2]; [9]) of -1.43% and an activation at 10 µM (348 GPCRs [3]; [10]) of -4.31%. The activation at 100 µM (348 GPCRs [4]; [11]) was 0.462%, the activation at 10 µM (348 GPCRs [5]; [12]) was 0.496% and the activation at 100 µM (348 GPCRs [6]; [13]) was 0.608%. For the same compound, the activation at 10 µM (348 GPCRs [7]; [14]) was -0.949%.
`CC(C)OC(=O)[C@H](C)N[P@](=O)(OC[C@H]1O[C@@H](n2ccc(=O)[nH]c2=O)[C@](C)(F)[C@@H]1O)Oc1ccccc1` [sofosbuvir] gave an activation at 100 µM (348 GPCRs [1]; [15]) of -0.539%, an activation at 10 µM (348 GPCRs [2]; [16]) of 0.112% and an activation at 10 µM (348 GPCRs [3]; [17]) of -2.59%. For the same compound, the activation at 100 µM (348 GPCRs [4]; [18]) was -5.23%, the activation at 10 µM (348 GPCRs [5]; [19]) was 0.575% and the activation at 100 µM (348 GPCRs [6]; [20]) was -2.96%. It also gave an activation at 10 µM (348 GPCRs [7]; [21]) of -2.48%.
In the case of `CCC(CC)COC(=O)[C@H](C)N[P@](=O)(OC[C@H]1O[C@@](C#N)(c2ccc3c(N)ncnn23)[C@H](O)[C@@H]1O)Oc1ccccc1` [remdesivir], the activation at 100 µM (348 GPCRs [1]; [15]) is reported as 0.0788%, the activation at 10 µM (348 GPCRs [2]; [16]) is reported as -0.795% and the activation at 10 µM (348 GPCRs [3]; [17]) is reported as 0.718%. The activation at 100 µM (348 GPCRs [4]; [18]) was 1.07%, the activation at 10 µM (348 GPCRs [5]; [19]) was -0.549% and the activation at 100 µM (348 GPCRs [6]; [20]) was 0.868%. The activation at 10 µM (348 GPCRs [7]; [21]) was 8.13%.
`CC(C)C(=O)OC[C@H]1O[C@@H](n2ccc(NO)nc2=O)[C@H](O)[C@@H]1O` [molnupiravir] was tested, and the activation at 100 µM (348 GPCRs [1]; [8]) was -1.55%, the activation at 10 µM (348 GPCRs [2]; [9]) was -0.116% and the activation at 10 µM (348 GPCRs [3]; [10]) was -6.75%. It also gave an activation at 100 µM (348 GPCRs [4]; [11]) of -4.76%, an activation at 10 µM (348 GPCRs [5]; [12]) of 0.0444% and an activation at 100 µM (348 GPCRs [6]; [13]) of -1.58%. For the same compound, the activation at 10 µM (348 GPCRs [7]; [14]) was -0.00545%.
With `NC(=O)c1nc(F)cnc1O` [favipiravir, 6-fluoro-3-hydroxy-2-pyrazinecarboxamide] the activation at 100 µM (348 GPCRs [1]; [8]) was -1.15%, the activation at 10 µM (348 GPCRs [2]; [9]) was -0.693% and the activation at 100 µM (348 GPCRs [3]; GPCR P2Y12 (purinergic receptor P2Y, G-protein coupled, 12), 100μM, read-out: % GPCR activation compared to TPA) was -4.09%. It also gave an activation at 100 µM (348 GPCRs [4]; [11]) of -0.896%, an activation at 100 µM (348 GPCRs [5]; GPCR MC1R (melanocyte-stimulating hormone receptor), 100μM, read-out: % GPCR activation compared to TPA) of -0.375% and an activation at 100 µM (348 GPCRs [6]; [13]) of -0.417%. The activation at 100 µM (348 GPCRs [7]; GPCR α2A (adrenoceptor alpha 2A), 100μM, read-out: % GPCR activation compared to TPA) was 1.73%.
